Laboratory results published in PubChem BioAssay AID248 (DTP/NCI, 2004).
Where “and” joins values, the source holds several entries; their conditions need not be identical. Equal entries are not always repeated. Toxic doses and inconclusive results are not listed. Cut-off read from the data, not from the text of the source: active = T/C of 150% or more; inactive = T/C below 125%.

System: L1210 leukemia ip in BDF1 mice, survival T/C
Assay: NCI In Vivo Anticancer Drug Screen. Data for tumor model L1210 Leukemia (intraperitoneal) in B6D2F1 (BDF1) mice
Conditions: endpoint: mean survival time, higher = longer survival
Method in brief: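 Tumor cells were implanted, animals were treated, and survival was followed. The result divides the treated measurement by the vehicle-control measurement.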

[1] = dose: 50.0 mg/kg/injection, schedule: Q01DX001 (ip), vehicle: saline
[2] = dose: 100.0 mg/kg/injection, schedule: Q01DX009 (ip), vehicle: Klucel (hydroxypropylcellulose) (HPC)
[3] = dose: 100.0 mg/kg/injection, schedule: Q04DX003 (ip), vehicle: Klucel (hydroxypropylcellulose) (HPC)
[4] = dose: 200.0 mg/kg/injection, schedule: Q01DX009 (ip), vehicle: Klucel (hydroxypropylcellulose) (HPC)
[5] = dose: 200.0 mg/kg/injection, schedule: Q04DX003 (ip), vehicle: Klucel (hydroxypropylcellulose) (HPC)
[6] = dose: 400.0 mg/kg/injection, schedule: Q04DX003 (ip), vehicle: Klucel (hydroxypropylcellulose) (HPC)
[7] = dose: 100.0 mg/kg/injection, schedule: Q01DX009 (ip), vehicle: saline with Tween-80
[8] = dose: 100.0 mg/kg/injection, schedule: Q04DX003 (ip), vehicle: saline with Tween-80
[9] = dose: 200.0 mg/kg/injection, schedule: Q01DX009 (ip), vehicle: saline with Tween-80
[10] = dose: 400.0 mg/kg/injection, schedule: Q01DX009 (ip), vehicle: saline with Tween-80
[11] = dose: 50.0 mg/kg/injection, schedule: Q04DX003 (ip), vehicle: saline with Tween-80
[12] = dose: 25.0 mg/kg/injection, schedule: Q01DX009 (ip), vehicle: Klucel (hydroxypropylcellulose) (HPC)
[13] = dose: 50.0 mg/kg/injection, schedule: Q01DX009 (ip), vehicle: Klucel (hydroxypropylcellulose) (HPC)
[14] = dose: 100.0 mg/kg/injection, schedule: Q04DX002 (ip), vehicle: Klucel (hydroxypropylcellulose) (HPC)
[15] = dose: 200.0 mg/kg/injection, schedule: Q04DX002 (ip), vehicle: Klucel (hydroxypropylcellulose) (HPC)
[16] = dose: 100.0 mg/kg/injection, schedule: Q01DX001 (ip), vehicle: carboxymethylcellulose (CMC)
[17] = dose: 200.0 mg/kg/injection, schedule: Q01DX001 (ip), vehicle: carboxymethylcellulose (CMC)
[18] = dose: 400.0 mg/kg/injection, schedule: Q01DX001 (ip), vehicle: carboxymethylcellulose (CMC)
[19] = dose: 400.0 mg/kg/injection, schedule: Q01DX009 (ip), vehicle: Klucel (hydroxypropylcellulose) (HPC)

Measured: T/C

O=N[O-].O=N[O-].[Co].[NH-]CCN(CC[NH-])CC[NH-]
inactive: [1] 108 % of control

CCCCCCCCC1CCC(N)CC1 (configuration not stated)
inactive: [2] 95 % of control | [3] 95 % of control | [4] 93 % of control | [5] 101 % of control | [6] 98 % of control

COC(=O)c1cccc(O)c1O
inactive: dose: 100.0 mg/kg/injection, schedule: Q01DX005 (ip), vehicle: other 96 % of control | dose: 100.0 mg/kg/injection, schedule: Q01DX009 (ip), vehicle: other 114 % of control | dose: 200.0 mg/kg/injection, schedule: Q01DX005 (ip), vehicle: other 100 % of control | dose: 200.0 mg/kg/injection, schedule: Q01DX009 (ip), vehicle: other 107 % of control | dose: 400.0 mg/kg/injection, schedule: Q01DX005 (ip), vehicle: other 104 % of control | dose: 400.0 mg/kg/injection, schedule: Q01DX009 (ip), vehicle: other 88 % of control

O=C(Nc1ccccc1)N(Cc1ccccc1)c1ccccc1
inactive: [7] 90 % of control | [8] 101 % of control | [9] 89 % of control | dose: 200.0 mg/kg/injection, schedule: Q04DX003 (ip), vehicle: saline with Tween-80 101 % of control | [10] 96 % of control | dose: 400.0 mg/kg/injection, schedule: Q04DX003 (ip), vehicle: saline with Tween-80 86 % of control

CC(O)C#N (configuration not stated)
inactive: dose: 0.63 mg/kg/injection, schedule: Q04DX003 (ip), vehicle: saline 102 % of control | dose: 1.25 mg/kg/injection, schedule: Q04DX003 (ip), vehicle: saline 115 % of control | dose: 2.5 mg/kg/injection, schedule: Q04DX003 (ip), vehicle: saline 115 % of control | dose: 5.0 mg/kg/injection, schedule: Q04DX003 (ip), vehicle: saline 103 % of control

C[n+]1c2ccccc2c(N=[N+]=[N-])c2ccccc21
inactive: dose: 6.25 mg/kg/injection, schedule: Q01DX001 (ip), vehicle: suspension in saline 98 % of control | dose: 12.5 mg/kg/injection, schedule: Q01DX001 (ip), vehicle: suspension in saline 98 % of control | dose: 12.5 mg/kg/injection, schedule: Q04DX003 (ip), vehicle: suspension in saline 97 % of control | dose: 25.0 mg/kg/injection, schedule: Q01DX001 (ip), vehicle: suspension in saline 98 % of control | dose: 25.0 mg/kg/injection, schedule: Q04DX003 (ip), vehicle: suspension in saline 95 % of control | dose: 50.0 mg/kg/injection, schedule: Q04DX003 (ip), vehicle: suspension in saline 105 % of control

COC(=O)c1ccc(CBr)cc1
inactive: dose: 25.0 mg/kg/injection, schedule: Q01DX009 (ip), vehicle: saline with Tween-80 97 % of control | dose: 50.0 mg/kg/injection, schedule: Q01DX009 (ip), vehicle: saline with Tween-80 90 % of control | [11] 97 % of control | [7] 98 % of control | [8] 96 % of control

CCOC(=O)C1(c2ccccc2)CCN(CC(O)COc2cc(C)ccc2C(C)C)CC1 (configuration not stated)
inactive: [12] 91 % of control | [13] 100 % of control | [2] 93 % of control and 97 % of control

C1=C(c2ccccc2)N(C2CCCCC2)C(c2ccccc2)=CN1Cc1ccccc1
inactive: [14] 92 % of control | [15] 92 % of control

Clc1nc(I)c(Cl)c(I)n1
inactive: dose: 6.25 mg/kg/injection, schedule: Q01DX009 (ip), vehicle: other 119 % of control | dose: 12.5 mg/kg/injection, schedule: Q01DX009 (ip), vehicle: other 101 % of control | dose: 25.0 mg/kg/injection, schedule: Q01DX009 (ip), vehicle: other 94 % of control

C=CCOc1nc(SC)ncc1C(=O)O
inactive: dose: 100.0 mg/kg/injection, schedule: Q01DX001 (ip), vehicle: Klucel (hydroxypropylcellulose) (HPC) 97 % of control | dose: 200.0 mg/kg/injection, schedule: Q01DX001 (ip), vehicle: Klucel (hydroxypropylcellulose) (HPC) 97 % of control | dose: 400.0 mg/kg/injection, schedule: Q01DX001 (ip), vehicle: Klucel (hydroxypropylcellulose) (HPC) 91 % of control

CCOC(=O)C(CN(CC)CC)c1ccccc1 (configuration not stated)
inactive: dose: 88.8 mg/kg/injection, schedule: Q01DX001 (ip), vehicle: carboxymethylcellulose (CMC) 97 % of control and 105 % of control | [16] 118 % of control | dose: 133.0 mg/kg/injection, schedule: Q01DX001 (ip), vehicle: carboxymethylcellulose (CMC) 97 % of control and 98 % of control | [17] 105 % of control and 109 % of control | dose: 300.0 mg/kg/injection, schedule: Q01DX001 (ip), vehicle: carboxymethylcellulose (CMC) 98 % of control and 106 % of control | [18] 115 % of control

CCS(=O)(=O)C(CCC(S(=O)(=O)CC)S(=O)(=O)CC)S(=O)(=O)CC
inactive: dose: 100.0 mg/kg/injection, schedule: Q01DX001 (ip), vehicle: saline 110 % of control | dose: 200.0 mg/kg/injection, schedule: Q01DX001 (ip), vehicle: saline 96 % of control | dose: 400.0 mg/kg/injection, schedule: Q01DX001 (ip), vehicle: saline 102 % of control

CC(C)(C)OC(=O)N1CCCC1C(=O)O (configuration not stated)
inactive: [16] 109 % of control | [17] 104 % of control | [18] 95 % of control

CC(=O)Nc1ccc(OCCCCOc2ccccc2)cc1
inactive: [2] 87 % of control | [3] 103 % of control | [4] 97 % of control | [5] 100 % of control | [19] 92 % of control | [6] 97 % of control

NNC(=O)C(Cc1cnc[nH]1)NC(=O)OCc1ccccc1 (configuration not stated)
inactive: [14] 100 % of control | [15] 90 % of control | dose: 400.0 mg/kg/injection, schedule: Q04DX002 (ip), vehicle: Klucel (hydroxypropylcellulose) (HPC) 107 % of control

O=[N+]([O-])c1cccc(-c2ccccc2)c1Br
inactive: [7] 94 % of control | [3] 93 % of control | [9] 93 % of control | [5] 96 % of control | [10] 94 % of control | [6] 94 % of control

COc1ccc(C(CC(=O)c2ccc3c(c2)OCO3)C(=O)O)cc1OC (configuration not stated)
inactive: [2] 93 % of control | [3] 100 % of control | [4] 98 % of control | [5] 96 % of control | [19] 93 % of control | [6] 93 % of control

NS(=O)(=O)c1ccc(N=Nc2ncc(CCNC3=CC(=O)C(=O)c4ccccc43)[nH]2)cc1
inactive: dose: 12.5 mg/kg/injection, schedule: Q01DX009 (ip), vehicle: Klucel (hydroxypropylcellulose) (HPC) 93 % of control | [12] 96 % of control | [13] 96 % of control and 92 % of control

Clc1ccc(Nc2ncnc3ncn(Cc4ccccc4)c23)cc1
inactive: dose: 100.0 mg/kg/injection, schedule: Q01DX001 (ip), vehicle: other 89 % of control | dose: 200.0 mg/kg/injection, schedule: Q01DX001 (ip), vehicle: other 93 % of control | dose: 400.0 mg/kg/injection, schedule: Q01DX001 (ip), vehicle: other 101 % of control

C/C(N)=C\C#N
inactive: [1] 91 % of control

CCN(CC)C(=O)C1C2CCC(C2)C1C(=O)N(CC)CC (configuration not stated)
inactive: dose: 100.0 mg/kg/injection, schedule: Q04DX003 (ip), vehicle: saline 100 % of control | dose: 200.0 mg/kg/injection, schedule: Q04DX003 (ip), vehicle: saline 100 % of control | dose: 400.0 mg/kg/injection, schedule: Q04DX003 (ip), vehicle: saline 100 % of control

Cc1cc(N(CCCl)CCCl)ccc1C=Nc1ccc(C(=O)O)c(O)c1
inactive: [16] 111 % of control | [17] 95 % of control

CCCCCCCCCCCCCCCCCc1nc(N)nc(N(C)C)n1
inactive: dose: 25.0 mg/kg/injection, schedule: Q04DX003 (ip), vehicle: saline with Tween-80 97 % of control | [11] 96 % of control | [8] 97 % of control
